# Results published in patent US20090138208A1, “IMMUNOGLOBULIN G BINDING POCKET” (GE HEALTHCARE BIO-SCIENCES AB, priority 2002, published 2009).
# Structures can show the parent of a compound that is named as a salt.
# Target: human Fab of κ-type (Homo sapiens, UniProt P01834+P01857)
# Experiment: STD NMR screening (1D saturation transfer difference) for binding to antibody
# Parameters: key: 0 no; 1 weak; 2 strong signal
# Settings: 0.5 mM ligand; for NMR signal conc 1: 500 nM antibody, 298 K; for NMR signal conc 2: 100 nM antibody; for NMR signal conc 3: 20 nM antibody
# Procedure: All NMR experiments were performed at 298 K on a Bruker Avance 500 MHz spectrometer. The 1D saturation transfer difference method (STD NMR) was used as screening assay (Mayer M. and Meyer B. 1999. Characterization of Ligand Binding by Saturation Transfer Difference NMR Spectroscopy. Angew. Chem., Int. Ed. 38: 1784-1788) using several antibody concentrations in order to differentiate between compounds with different binding strength (Peng J. W., Lepre C. A., Fejzo J., Abdul-Manan N. and Moore J. M. 2001. Nuclear Magnetic Resonance-Based Approaches for Lead Generation in Drug Discovery. Methods in Enzymology. 338: 202-230). The antibody used was a human Fab of κ-type. In all cases ligands were tested one-by-one. On-resonance irradiation was set at 0 ppm and off-resonance irradiation was set at −40 ppm. Irradiation time in each scan was 2 s and 16 K data points were collected with 1024 scans in total. Compounds for testing were dissolved in DMSOd6 to a concentration of 50 mM and 5 μL of the concentrated ligand solution was added to 495 μL buffer solution. The samples thus consisted of 0.5 mM ligand, 20 mM phosphate buffer, 100 mM NaCl and […] in D2O at pD 7.5, uncorrected reading on pH-meter.
# Compounds were initially tested for binding with 0.5 μM antibody. Interesting ligands were further tested with protein concentrations of 100 or 20 nM. A one-dimensional ^1H-spectrum was acquired first and subsequently a saturation transfer difference (STD) spectrum was acquired. Each analysis took 60 minutes on the spectrometer. […] The analysis was setup for automation so that several samples could be analysed over night (usually 10-15 samples/night).
# As many as 46 of the virtual screening hits were tested with NMR according to the procedure described above. The results from NMR screening together with additional compound data are compiled in Table 1 below. In total 24 compounds gave a positive result in the first round with the highest antibody concentration (500 nM). These 24 compounds were subjected to a second round with an antibody concentration of 100 nM. The 4 compounds showing the strongest signal in the second round were tested for binding in a third round with 20 nM antibody. Three of the compounds in the third round gave a positive result and where thus designated as the strongest binders to the antibody out of the 46 tested compounds.
# Chain of human Fab of κ-type (P01857 with tags, fused parts or gaps, other chains not shown): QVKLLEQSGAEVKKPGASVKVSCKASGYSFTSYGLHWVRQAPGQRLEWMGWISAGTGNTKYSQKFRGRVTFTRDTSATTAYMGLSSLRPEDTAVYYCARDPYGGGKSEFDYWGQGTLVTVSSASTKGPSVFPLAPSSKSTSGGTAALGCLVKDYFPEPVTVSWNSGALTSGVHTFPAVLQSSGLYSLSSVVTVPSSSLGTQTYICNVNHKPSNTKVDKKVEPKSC
Structure (SMILES),NMR signal conc 1,NMR signal conc 2,NMR signal conc 3
"O=C1c2ccncc2C(=O)N1c1ccc(Cl)cc1 [AB_0000610, 2-(4-chlorophenyl)-2,3-dihydro-1h-pyrrolo[3,4-c]pyridine-1,3-dione]",0,–,–
"CCOC(=O)c1c[nH]c2ccccc2c1=O [AB_0001100, ethyl 4-oxo-1,4-dihydroquinoline-3-carboxylate]",0,–,–
"CC1(C)CC(=O)c2sc(NC(=O)c3cccnc3)nc2C1 [AB_0000750, n-(5,5-dimethyl-7-oxo-4,5,6,7-tetrahydro-benzothiazol-2-yl)-nicotinamide]",0,–,–
"N=c1sccn1CC(=O)c1ccc2ccccc2c1 [AB_0001060, 2-(2-imino-thiazol-3-yl)-1-naphthalen-2-yl-ethanone]",2,0,–
"COC(=O)NC(=O)c1nc(-c2ccccc2)c(C)o1 [AB_0000670, methyl n-[(5-methyl-4-phenyl-1,3-oxazol-2-yl)carbonyl]carbamate]",2,0,–
"O=C(Cc1ncon1)Nc1ccc(F)cc1F [AB_0000690, n1-(2,4-difluorophenyl)-2-(1,2,4-oxadiazol-3-yl)acetamide]",0,–,–
"O=C(c1ccc2ccccc2c1)n1ccnc1 [AB_0000900, 1-(2-naphthoyl)imidazole]",0,–,–
"O=C(O)c1ccnn(-c2ccccc2)c1=O [AB_0001180, 3-oxo-2-phenyl-2,3-dihydro-4-pyridazinecarboxylic acid]",0,–,–
"O=C1SC(Br)C(=O)N1c1ccccc1 (centres unmarked) [AB_0000880, 5-bromo-3-phenyl-thiazolidine-2,4-dione]",0,–,–
"N#CCc1ccc(C(=O)c2ccccc2F)s1 [AB_0001010, 2-[5-(2-fluorobenzoyl)-2-thienyl]acetonitrile]",2,2,2
"Clc1ccc(COn2ccnc2)cc1Cl [AB_0001150, 1-[(3,4-dichlorobenzyl)oxy]-1h-imidazole]",2,0,–
"c1ccc(CCn2cc(-c3ccncc3)cn2)cc1 [AB_0001190, 4-[1-(2-phenylethyl)-(1h)-pyrazol-4-yl]pyridine]",2,0,–
"O=C(CC1OC(=O)c2ccccc21)c1ccccn1 (centres unmarked) [AB_0000790, 3-[2-oxo-2-(2-pyridyl)ethyl]-1,3-dihydroisobenzofuran-1-one]",0,–,–
"OC(CNCc1ccc(Cl)cc1Cl)C(F)(F)F (centres unmarked) [AB_0001170, 3-[(2,4-dichlorobenzyl)amino]-1,1,1-trifluoro-2-propanol]",0,–,–
"c1ccc(-c2nnc3ccccc3n2)cc1 [AB_0000600, 3-phenyl-1,2,4-benzotriazine]",1,1,–
"OC(CNCc1ccccc1)C(F)(F)F (centres unmarked) [AB_0001000, 3-(benzylamino)-1,1,1-trifluoro-2-propanol]",1,0,–
"COc1ccc(CC(C)=O)cc1Br [AB_0000910, 3-bromo-4-methoxyphenylacetone]",2,2,0
"CCCCc1c(O)nc2ccccn2c1=O [AB_0000990, 3-butyl-2-hydroxy-4h-pyrido[1,2-a]pyrimidin-4-one]",0,–,–
"O=C(c1cccs1)c1cnc2ccccn2c1=O [AB_0001300, 3-(2-thienylcarbonyl)-4h-pyrido[1,2-a]pyrimidin-4-one]",1,0,–
"COC(=O)C1OC1c1cc(Cl)ccc1OC (centres unmarked) [AB_0001240, methyl 3-(5-chloro-2-methoxyphenyl)-2,3-epoxypropionate]",1,1,–
"FC(F)(F)c1cccc(-n2ccnc2)c1 [AB_0001220, 1-(3-trifluoromethylphenyl)imidazole]",2,0,–
"Clc1ccc(OCc2noc(CSc3ccccn3)n2)cc1 [AB_0001290, 3-[(4-chlorophenoxy)methyl]-5-[(2-pyridylthio)methyl]-1,2,4-oxadiazole]",2,1,–
"O=C(c1ccccn1)C(O)c1ccccn1 (stereo not drawn) [AB_0000510, alpha-pyridoin]",0,–,–

Structure (SMILES),NMR signal conc 1,NMR signal conc 2,NMR signal conc 3
"c1ccc(-c2nnc(-c3ccccn3)nn2)nc1 [AB_0000700, 3,6-di-2-pyridyl-1,2,4,5-tetrazine]",0,–,–
"CC(C)=CC1=C(O)C(=O)c2ccccc2C1=O [AB_0001040, 2-hydroxy-3-(2-methyl-1-propenyl)-1,4-naphthoquinone]",1,1,–
"O=C(Nc1ccc(F)cc1)Oc1noc(-c2ccccc2)n1 [AB_0000740, 5-phenyl-1,2,4-oxadiazol-3-yl n-(4-fluorophenyl)carbamate]",0,–,–
"CC1CN=C(SCc2ccccc2)N1.Cl (centres unmarked) [AB_0001080, 2-(benzylthio)-5-methyl-4,5-dihydro-1h-imidazol-3-ium chloride]",0,–,–
"CSCCNC(=O)c1nc2ccccc2c(=O)n1N [AB_0001130, 3-amino-n-[2-(methylthio)ethyl]-4-oxo-3,4-dihydroquinazoline-2-carboxamide]",0,–,–
"Cc1cc(C)nc(SCC(=O)Nc2ccc(F)c(Cl)c2)n1 [AB_0000580, n1-(3-chloro-4-fluorophenyl)-2-[(4,6-dimethylpyrimidin-2-yl)thio]acetamide]",1,0,–
"CCn1ccnc1CC1COc2ccccc2O1 (centres unmarked) [AB_0001070, imiloxan hydrochloride]",1,1,–
"Fc1cc(F)cc(Cc2nc(-c3cccs3)no2)c1 [AB_0001020, 5-(3,5-difluorobenzyl)-3-(2-thienyl)-1,2,4-oxadiazole]",1,0,–
"O=C1C=C(Cl)C(=O)N1c1ccccc1 [AB_0000930, 3-chloro-1-phenyl-pyrrole-2,5-dione]",0,–,–
"Sc1nnc(-c2csc(-c3ccccc3)n2)o1 [AB_0000760, 5-(2-phenyl-1,3-thiazol-4-yl)-1,3,4-oxadiazol-2-ylhydrosulfide]",1,0,–
"CN(C)C(=O)N(C)c1ccc(Cl)c(Cl)c1 [AB_0001250, 1-(3,4-dichlorophenyl)-1,3,3-trimethylurea]",2,2,1
"COC(=O)c1ccc2ccccc2c1O [AB_0001200, methyl 1-hydroxy-2-naphthoate]",1,0,–
"O=C1C(=Cc2ccccc2)C(=O)c2ccccc21 [AB_0000730, 2-benzylidene-1,3-indandione]",0,–,–
"O=C(COc1ccc2ccccc2c1)ON1C(=O)CCC1=O [AB_0001230, (2-naphthoxy)acetic acid, n-hydroxysuccinimide ester]",0,–,–
"S=C(Oc1ccccn1)c1csc(C2COc3ccccc3O2)n1 (centres unmarked) [AB_0001260, 2-pyridyl 2-(2,3-dihydro-1,4-benzodioxin-2-yl)-1,3-thiazole-4-carbothioate]",0,–,–
"O=C1C=CC(=O)N1c1cccc(Cl)c1 [AB_0001090, n-(3-chlorophenyl)-maleimide]",1,0,–
"OCC(Oc1ccccc1)c1ccccc1 (centres unmarked) [AB_0000810, 2-phenoxy-2-phenyl-1-ethanol]",2,1,–
"CC1=NN(c2cccc(Cl)c2)C(=O)C1 [AB_0000530, 1-(3-chlorophenyl)-3-methyl-2-pyrazolin-5-one]",0,–,–
"OC(CNCc1ccc(Cl)cc1)CSc1ccccc1 (centres unmarked) [AB_0001270, 1-[(4-chlorobenzyl)amino]-3-(phenylthio)propan-2-ol]",1,0,–
"O=C1C(=O)N(c2ccccc2)C(=O)N1c1ccccc1 [AB_0000540, 1,3-diphenylparabanic acid]",0,–,–
"O=C(Cc1ncon1)Nc1ccc(F)c(F)c1F [AB_0000630, n1-(2,3,4-trifluorophenyl)-2-(1,2,4-oxadiazol-3-yl)acetamide]",0,–,–
"O=Cc1cccc(C(F)(F)F)c1Cl [AB_0001030, 2-chloro-3-(trifluoromethyl)benzaldehyde]",1,0,–
